No end group written: not given here.
Legend:
[1] = molecular target: T1, wild-type HP1a-CSD (Drosophila melanogaster, UniProt P05205); assay: Fluorescence polarization binding assay, wild-type HP1a-CSD; settings: for affinity for HP1a CSD compared with the PIWI peptide: in words, Kd not given
T1 sequence (P05205 131-206): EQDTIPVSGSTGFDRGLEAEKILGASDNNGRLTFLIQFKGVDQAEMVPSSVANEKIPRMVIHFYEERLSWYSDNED

[2] = molecular target: HP1a-CSD S199E and S202E double mutant (Drosophila melanogaster, UniProt P05205, S199E/S202E); format: binding; settings: FP; for enhancement of affinity by the phosphorylation mimic, relative to WT CSD: S199E S202E double mutant vs WT HP1a-CSD
[3] = molecular target: HP1a-CSD E195Q mutant (Drosophila melanogaster, UniProt P05205, E195Q); format: binding; settings: FP; E195Q vs WT HP1a-CSD
[4] = molecular target: HP1a-CSD I191E mutant (Drosophila melanogaster, UniProt P05205, I191E); assay: biochemical
[5] = molecular target: HP1a-CSDΔ204 (residues 131–203) (Drosophila melanogaster, UniProt P05205); format: binding; settings: FP; Δ204 (last three residues removed) vs WT HP1a-CSD
[6] = molecular target: HP1a-CSD W200A mutant (Drosophila melanogaster, UniProt P05205, W200A); assay: biochemical
[7] = tested on: HP1β (homodimerization); assay: Equilibrium analytical ultracentrifugation, HP1β self-association; settings: same buffer conditions

Chain of HP1a-CSD S199E and S202E double mutant (P05205 131-206 S199E/S202E): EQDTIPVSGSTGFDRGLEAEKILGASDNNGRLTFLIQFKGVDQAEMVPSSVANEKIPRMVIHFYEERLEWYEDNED
Chain of HP1a-CSD I191E mutant (P05205 131-206 I191E): as the sequence (P05205 131-206 S199E/S202E) above, with I61E, E69S, E72S counted along it
Chain of HP1a-CSD E195Q mutant (P05205 131-206 E195Q): as the sequence (P05205 131-206 S199E/S202E) above, with E65Q, E69S, E72S counted along it
Chain of HP1a-CSD W200A mutant (P05205 131-206 W200A): as the sequence (P05205 131-206 S199E/S202E) above, with E69S, W70A, E72S counted along it

Substance	affinity for HP1a CSD compared with the PIWI peptide ([1]; FP, WT HP1a-CSD)	enhancement of affinity by the phosphorylation mimic, relative to WT CSD [2] [fold]	drop in affinity caused by the E195Q mutation, relative to WT CSD [3] [fold]	Kd [4] [µM]	weaker binding to the Δ204 construct, relative to WT CSD [5] [fold]	Kd [6] [µM]	further results
H-PATTSPLVVLSNQLPLNSVAASY-OH [AF10]	quite similar						
QNISPRKLSVKINRRPYNKWLR [HP2]		7	10	> 400	16	> 500	Hill coefficient of peptide binding ([2]; S199E S202E double mutant): 1.7 ± 0.3; difference in dissociation constant between HP2 and PIWI peptides ([1]; FP, WT HP1a-CSD, sub-micromolar to micromolar range): two-order of magnitude difference
full length HP1β: recombinant full length mammalian HP1β (human and mouse sequences identical)							dimerization tighter than that of HP1a [7]: 3 times
TSRGSGDLSVKIFRGSSSGDY [PIWI peptide with HP2 pentamer]							Kd [1]: 21.3 ± 1.3 µM
H-SEGRRLYPLLPRISPQTALSIVANDLAESD-OH [CG15356]	quite similar						
TSRGSGDPRVKVFRGSSSGDY [PIWI]		12	5	> 2000	3	> 2000	

Source: publication PMC3154745 (Chembiochem : a European journal of chemical biology, 2011)
